From patent publication US6812228B2, “Benzoxazines for use in the treatment of parkinson's disease” (Warner-Lambert Company, priority 2000, dated 2004) come the findings set out here.

Read-outs that look alike come from different tables or passages of the source.

In data set [1] the target is T1, human muscarinic receptor subtype M4 (Homo sapiens, UniProt P08173).
T1 sequence (P08173 1-479): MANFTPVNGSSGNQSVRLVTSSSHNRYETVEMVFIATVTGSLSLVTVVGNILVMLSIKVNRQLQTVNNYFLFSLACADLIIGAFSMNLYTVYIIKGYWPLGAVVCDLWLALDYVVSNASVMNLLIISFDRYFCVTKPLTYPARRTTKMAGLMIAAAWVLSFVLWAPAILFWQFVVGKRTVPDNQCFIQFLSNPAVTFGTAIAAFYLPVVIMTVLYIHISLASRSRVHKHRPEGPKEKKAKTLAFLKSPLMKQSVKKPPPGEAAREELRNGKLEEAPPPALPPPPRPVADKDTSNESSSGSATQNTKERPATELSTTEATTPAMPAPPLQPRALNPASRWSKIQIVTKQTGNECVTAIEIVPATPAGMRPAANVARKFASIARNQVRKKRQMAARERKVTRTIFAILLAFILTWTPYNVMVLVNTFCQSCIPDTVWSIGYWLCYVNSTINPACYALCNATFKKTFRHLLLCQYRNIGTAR
The experiment in a line: Muscarinic receptor binding, displacement of [3H]-NMS, membranes from transfected CHO cells. Conditions: for binds to the M4 receptor more than to M3 (selectivity): M4 versus M3; for bind to M4 more than some of the other subtypes (selectivity): M4 versus some of the other subtypes, upper figure (as much as). How it is done: (§1) The compounds were evaluated in standard assays used to measure muscarinic receptor binding, and they were compared with other benzoxazines described in Bioorganic & Medicinal Chemistry Letters 8, 1998:1991-1996, which is incorporated herein by reference. Specifically, the compounds were evaluated for their binding affinity toward five human muscarinic receptor subtypes (M1-M5) by the method of Dorje et al., J. Pharm. Exp. Ther. 1991;256:727-733, which is incorporated herein by reference. The binding was determined by measuring the displacement of [^3H]-NMS (N-methylscopolamine) binding using membranes from transfected Chinese hamster ovary (CHO) cells.
(In a radioligand displacement assay an active substance lowers the binding of a labelled ligand.)

For data set [2], the target named is human muscarinic receptor subtype M3 (Homo sapiens, UniProt P20309). The data set is described as above. The procedure: as §1
Data set [3] deals with T2, human muscarinic receptor subtype M5 (Homo sapiens, UniProt P08912).
T2 sequence (P08912 1-532): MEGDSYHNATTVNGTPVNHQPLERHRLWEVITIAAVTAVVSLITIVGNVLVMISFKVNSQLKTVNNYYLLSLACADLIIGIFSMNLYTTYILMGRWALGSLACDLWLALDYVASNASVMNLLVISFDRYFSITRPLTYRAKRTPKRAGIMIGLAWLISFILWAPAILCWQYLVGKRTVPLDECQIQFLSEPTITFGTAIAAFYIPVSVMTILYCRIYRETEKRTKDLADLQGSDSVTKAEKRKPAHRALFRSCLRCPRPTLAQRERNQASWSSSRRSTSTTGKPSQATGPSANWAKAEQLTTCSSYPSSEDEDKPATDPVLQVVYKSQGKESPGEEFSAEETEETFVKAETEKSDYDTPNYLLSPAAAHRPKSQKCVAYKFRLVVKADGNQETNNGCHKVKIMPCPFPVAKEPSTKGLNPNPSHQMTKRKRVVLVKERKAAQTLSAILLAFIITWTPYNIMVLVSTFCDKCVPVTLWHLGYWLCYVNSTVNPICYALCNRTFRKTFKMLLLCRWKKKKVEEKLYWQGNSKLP
Described as above. The procedure: as §1

For data set [4], the target named is T3, human muscarinic receptor subtype M1 (Homo sapiens, UniProt P11229).
T3 sequence (P11229 1-460): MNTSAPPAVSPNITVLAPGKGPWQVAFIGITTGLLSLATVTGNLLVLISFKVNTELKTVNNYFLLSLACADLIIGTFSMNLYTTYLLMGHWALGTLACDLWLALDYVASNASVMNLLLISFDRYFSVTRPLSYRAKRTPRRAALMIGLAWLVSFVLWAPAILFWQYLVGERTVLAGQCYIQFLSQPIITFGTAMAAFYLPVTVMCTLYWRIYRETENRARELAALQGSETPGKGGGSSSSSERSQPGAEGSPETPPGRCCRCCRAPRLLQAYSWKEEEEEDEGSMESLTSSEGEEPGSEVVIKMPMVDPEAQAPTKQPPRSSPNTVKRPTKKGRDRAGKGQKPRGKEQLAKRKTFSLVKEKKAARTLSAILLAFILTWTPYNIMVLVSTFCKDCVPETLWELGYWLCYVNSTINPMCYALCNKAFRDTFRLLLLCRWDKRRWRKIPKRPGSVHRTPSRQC
The description is as above. How it is done:
as §1

Data set [5] addresses T4, human muscarinic receptor subtype M2 (Homo sapiens, UniProt P08172).
T4 sequence (P08172 1-466): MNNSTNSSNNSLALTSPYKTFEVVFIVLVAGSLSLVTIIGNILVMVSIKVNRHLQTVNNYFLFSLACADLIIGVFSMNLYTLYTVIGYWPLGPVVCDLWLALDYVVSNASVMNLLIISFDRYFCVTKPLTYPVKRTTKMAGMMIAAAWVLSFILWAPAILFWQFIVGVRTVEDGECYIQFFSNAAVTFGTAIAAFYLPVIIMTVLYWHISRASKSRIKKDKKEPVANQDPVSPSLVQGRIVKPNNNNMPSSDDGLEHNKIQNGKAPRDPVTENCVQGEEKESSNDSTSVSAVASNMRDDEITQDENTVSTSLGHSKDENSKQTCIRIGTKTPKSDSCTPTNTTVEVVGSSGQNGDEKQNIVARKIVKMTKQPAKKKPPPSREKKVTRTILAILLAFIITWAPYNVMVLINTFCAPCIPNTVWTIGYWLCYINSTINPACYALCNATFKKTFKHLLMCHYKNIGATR
The description is as above. The procedure:
as §1

Where [6] appears, read: [3H]-NMS displacement, CHO cell membranes, tested two to four times, SEM <=10%, read-out: Muscarinic Binding Activity M4 (IC50).
[7] abbreviates: [3H]-NMS displacement, CHO cell membranes, tested two to four times, SEM <=10%, read-out: Muscarinic Binding Activity M3 (IC50).
Setting [8] is: [3H]-NMS displacement, CHO cell membranes, tested two to four times, SEM <=10%, read-out: Muscarinic Binding Activity M5 (IC50).
The mark [9] stands for this setting: [3H]-NMS displacement, CHO cell membranes, tested two to four times, SEM <=10%, read-out: Muscarinic Binding Activity M1 (IC50).
The mark [10] stands for this setting: [3H]-NMS displacement, CHO cell membranes, tested two to four times, SEM <=10%, read-out: Muscarinic Binding Activity M2 (IC50).

Chain of human muscarinic receptor subtype M3 (P20309 whole entry): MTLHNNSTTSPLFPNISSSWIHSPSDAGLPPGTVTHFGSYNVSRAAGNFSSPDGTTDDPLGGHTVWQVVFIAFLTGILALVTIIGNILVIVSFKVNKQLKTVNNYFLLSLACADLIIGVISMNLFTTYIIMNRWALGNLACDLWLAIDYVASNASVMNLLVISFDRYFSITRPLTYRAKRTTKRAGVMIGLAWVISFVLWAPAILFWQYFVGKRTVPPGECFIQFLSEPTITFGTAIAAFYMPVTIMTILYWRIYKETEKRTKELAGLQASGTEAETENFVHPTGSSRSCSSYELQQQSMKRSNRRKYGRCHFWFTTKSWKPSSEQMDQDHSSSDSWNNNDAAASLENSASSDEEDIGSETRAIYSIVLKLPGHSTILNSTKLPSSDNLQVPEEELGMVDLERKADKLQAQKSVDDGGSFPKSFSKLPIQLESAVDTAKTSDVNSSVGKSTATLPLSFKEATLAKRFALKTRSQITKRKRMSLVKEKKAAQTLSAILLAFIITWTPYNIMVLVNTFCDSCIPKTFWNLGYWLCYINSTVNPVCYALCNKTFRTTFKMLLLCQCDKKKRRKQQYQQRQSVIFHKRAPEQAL

As usually defined, the IC50 is the concentration needed to halve the response being measured. Broadly, the melting point is the temperature, or range, at which the solid turns liquid. On to `CCCc1[nH]c2ccc3c(c2c1C(=O)OCC)CN1CCc2cc(OC)ccc2C1O3` (stereo not drawn) [Example 1, 9-Methoxy-2-propyl-11,12-dihydro-3H,6αH,13H-6-oxa-3,12α-diaza-benzo[a]cyclopent[h]anthracene-1-carboxylic acid ethyl ester], for which the melting point fell in the range of 191 to 193 °C. For the same molecule, in data set [1] (setting [6]), the IC50 was 0.009 µM. Further, the IC50 in data set [2] (setting [7]) was 0.13 µM. Moreover, the IC50 in data set [3] (setting [8]) came to 3.66 µM. In data set [4] (setting [9]), the IC50 turned out to be 4.66 µM. Further, in data set [5] (setting [10]), the IC50 came out at 2 µM.
For `CCCc1c(C(=O)OCC)c2c3c(ccc2n1C)OC1c2ccc(SC)cc2CCN1C3` (stereo not drawn) [Example 2, 3-Methyl-9-methylsulfanyl-2-propyl-11,12-dihydro-3H,6aH,13H-6-oxa-3,12a-diaza-benzo[a]cyclopent[h]anthracene-1-carboxylic acid ethyl ester], the melting point lay in the range of 139 to 143 °C. The “binds to the M4 receptor more than to M1, M2, and M5 (selectivity)” value in data set [1] (M4 versus M1, M2 and M5) is given as “about 1000 fold”. Also, the “binds to the M4 receptor more than to M3 (selectivity)” value (“binds … to M3 (selectivity)” below) in data set [1] is recorded as “about 52 fold”. The IC50 in data set [1] (setting [6]) came to 0.007 µM. The IC50 in data set [2] (setting [7]) is 0.37 µM. In addition, in data set [3] (setting [8]), the IC50 worked out at 3 µM. Besides, the IC50 in data set [4] (setting [9]) stood at 7.5 µM. The IC50 in data set [5] (setting [10]) was 7 µM.
The molecule `CCCc1c(C(=O)OCC)c2c3c(ccc2n1C)OC1c2ccc(OC)cc2CCN1C3` (stereo not drawn) [Example 3, 9-Methoxy-3-methyl-2-propyl-11,12-dihydro-3H,6aH,13H-6-oxa-3,12a-diaza-benzo[a]cyclopent[h]anthracene-1-carboxylic acid ethyl ester] registered a melting point of 150 to 151 °C. The 50% inhibitory concentration (IC50) in data set [1] (setting [6]) worked out at 0.007 µM. Moreover, the IC50 in data set [2] (setting [7]) was 0.13 µM. Further, the IC50 in data set [3] (setting [8]) worked out at 6 µM. Further, in data set [4] (setting [9]), the half-inhibitory concentration (IC50) stood at 3 µM. In addition, the IC50 in data set [5] (setting [10]) was 0.95 µM.
The molecule `CCCc1[nH]c2ccc3c(c2c1C(=O)OCC)CN1CCc2cc(SC)ccc2C1O3` (stereo not drawn) [Example 4, 9-Methylsulfanyl-2-propyl-11,12-dihydro-3H,6aH,13H-6-oxa-3,12a-diaza-benzo[a]cyclopent[h]anthracene-1-carboxylic acid ethyl ester] returned a melting point of 185 to 186 °C. In addition, in data set [1], the “binds … to M3 (selectivity)” value is given as “about 30 fold” and the “bind to M4 more than some of the other subtypes (selectivity)” value is reported as “about 800 fold”. Besides, the IC50 in data set [1] (setting [6]) was 0.006 µM. In data set [2] (setting [7]), the IC50 is 0.2 µM. In addition, in data set [3] (setting [8]), the IC50 is 3.5 µM. In data set [4] (setting [9]), the IC50 turned out to be 1.4 µM. In data set [5] (setting [10]), the IC50 worked out at 2 µM.
On to `CCCCc1[nH]c2ccc3c(c2c1C(=O)OCC)CN1CCc2cc(OC)ccc2C1O3` (stereo not drawn) [Example 5, 2-Butyl-9-methoxy-11,12-dihydro-3H,6aH,13H-6-oxa-3,12a-diaza-benzo[a]cyclopent[h]anthracene-1-carboxylic acid ethyl ester], for which, in data set [1], the “binds … to M3 (selectivity)” value is listed as “about 30 fold”. The “bind to M4 more than some of the other subtypes (selectivity)” value in data set [1] is reported as “about 800 fold”. In addition, the IC50 in data set [1] (setting [6]) worked out at 0.006 µM; in data set [2] (setting [7]) it was 0.19 µM; in data set [3] (setting [8]) it was 13 µM; in data set [4] (setting [9]), 0.8 µM; in data set [5] (setting [10]) it was 0.55 µM.
For `CCCCc1[nH]c2ccc3c(c2c1C(=O)OCC)CN1CCc2cc(SC)ccc2C1O3` (stereo not drawn) [Example 6, 2-Butyl-9-methylsulfanyl-11,12-dihydro-3H,6aH,13H-6-oxa-3,12a-diaza-benzo[a]cyclopent[h]anthracene-1-carboxylic acid ethyl ester], the melting point was in the range of 159 to 161 °C. Further, in data set [1] (setting [6]), the IC50 was 0.01 µM. Also, in data set [2] (setting [7]), the IC50 amounted to 5 µM. In data set [3] (setting [8]), the IC50 was found to be 2 µM. The half-maximal inhibitory concentration (IC50) in data set [4] (setting [9]) is 2 µM. In addition, in data set [5] (setting [10]), the IC50 was determined as 4 µM.
As to `CCCCCc1[nH]c2ccc3c(c2c1C(=O)OCC)CN1CCc2cc(OC)ccc2C1O3` (stereo not drawn) [Example 7, 9-Methoxy-2-pentyl-11,12-dihydro-3H,6aH,13H-6-oxa-3,12a-diaza-benzo[a]cyclopent[h]anthracene-1-carboxylic acid ethyl ester], the melting point was 170 to 172 °C. Also, in data set [1] (setting [6]), the IC50 is 0.01 µM. Further, in data set [2] (setting [7]), the IC50 was found to be 0.2 µM. The 50% inhibitory concentration (IC50) in data set [3] (setting [8]) turned out to be 10 µM. Further, the IC50 in data set [4] (setting [9]) amounted to 50 µM. Further, the IC50 in data set [5] (setting [10]) was 0.6 µM.
Regarding `CCOC(=O)c1c(CC)n(CC)c2ccc3c(c12)CN1CCc2cc(OC)ccc2C1O3` (stereo not drawn) [Prior Art Compound Et/Et/9-OMe/Et, reference compound], the IC50 is 0.02 µM in data set [1]; 0.05 µM in data set [2]; 5 µM in data set [3]; 5 µM in data set [4]; 1 µM in data set [5].
In the case of `CCOC(=O)c1c(CC)[nH]c2ccc3c(c12)CN1CCc2cc(OC)ccc2C1O3` (stereo not drawn) [Prior Art Compound Et/Et/9-OMe/H, reference compound], the half-maximal inhibitory concentration (IC50) in data set [1] (setting [6]) is 0.02 µM; in data set [2] (setting [7]) it was 0.2 µM; in data set [3] (setting [8]) it was 6 µM; in data set [4] (setting [9]) it was 2 µM; in data set [5] (setting [10]), 2 µM.
Consider `CCOC(=O)c1c(C)n(CC)c2ccc3c(c12)CN1CCc2cc(OC)ccc2C1O3` (stereo not drawn) [Prior Art Compound Et/Me/9-OMe/Et, reference compound], for which the IC50 is 0.05 µM in data set [1]; 0.5 µM in data set [2]; 3 µM in data set [3]; 2 µM in data set [4]; 0.4 µM in data set [5].
On to `CCOC(=O)c1c(C)[nH]c2ccc3c(c12)CN1CCc2cc(OC)ccc2C1O3` (stereo not drawn) [Prior Art Compound Et/Me/9-OMe/H, reference compound], for which the IC50 stood at 0.03 µM in data set [1] (setting [6]); 0.5 µM in data set [2] (setting [7]); 6 µM in data set [3] (setting [8]); 3 µM in data set [4] (setting [9]); 1 µM in data set [5] (setting [10]).
On the same counts, the results for `CCOC(=O)c1c(C)n(C)c2ccc3c(c12)CN1CCc2cc(OC)ccc2C1O3` (stereo not drawn) [Prior Art Compound Et/Me/9-OMe/Me, reference compound] are 0.05 µM, 0.4 µM, 1 µM, 0.5 µM and 0.4 µM.
